These results are taken from PubChem BioAssay (NCI).

Some test systems named below: HL-60(TB) leukemia; 786-0 renal; SR leukemia; CCRF-CEM leukemia; T-47D breast; MOLT-4 leukemia; MALME-3M melanoma; SW-620 colon; DU-145 prostate; SK-MEL-28 melanoma.
Experiment in all cases: NCI tumour cell line growth inhibition, 48 h

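The compound was tested at five concentrations on cells cultured in 96-well plates, with a 48-hour exposure period. TGI is the concentration that stops growth completely.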

For `O=C1C=CC(=O)c2ncccc21`, the TGI with HL-60(TB) leukemia is 2.02 µM; with 786-0 renal it was 7.61 µM; in the assay with SR leukemia, 5.88 µM; in the assay on CCRF-CEM leukemia, 3.29 µM; in the assay on T-47D breast it was 5.18 µM; in the assay with MOLT-4 leukemia it was above 24.1 µM. Also, the TGI with MALME-3M melanoma was found to be 9.78 µM; with SW-620 colon, 4.62 µM; with DU-145 prostate it was 20.4 µM; in the assay with SK-MEL-28 melanoma it was 11.2 µM.

On to `O=C(NCCNCCO)N/N=C/c1ccc(Cl)cc1`, for which the TGI in the assay on HL-60(TB) leukemia, with 786-0 renal, in the assay with SR leukemia, in the assay with CCRF-CEM leukemia, in the assay on T-47D breast and in the assay on MOLT-4 leukemia was above 100 µM throughout. The TGI in the assay with MALME-3M melanoma, in the assay on SW-620 colon, in the assay on DU-145 prostate and in the assay on SK-MEL-28 melanoma was above 100 µM throughout.

`O=C(c1ccco1)N(C(=S)OCc1ccccn1)c1ccccc1`: the TGI in the assay with HL-60(TB) leukemia is above 100 µM; with 786-0 renal, above 100 µM; in the assay with SR leukemia it was 8.58 µM; in the assay on CCRF-CEM leukemia, above 100 µM; with T-47D breast, above 100 µM; in the assay with MOLT-4 leukemia, above 100 µM. For the same molecule, the TGI is 79.2 µM with MALME-3M melanoma, above 100 µM in the assay on SW-620 colon, above 100 µM in the assay with DU-145 prostate and above 100 µM in the assay with SK-MEL-28 melanoma.

Regarding `O=C(N=Nc1ccccc1Br)NNc1ccccc1Br`, the TGI was 86.7 µM in the assay on HL-60(TB) leukemia; above 100 µM in the assay with 786-0 renal; above 100 µM with SR leukemia; above 100 µM with CCRF-CEM leukemia; above 100 µM in the assay with T-47D breast; above 100 µM in the assay with MOLT-4 leukemia. In addition, the TGI in the assay with MALME-3M melanoma, with SW-620 colon, in the assay on DU-145 prostate and in the assay on SK-MEL-28 melanoma was above 100 µM in each case.

On to `Cc1cc(S(=O)(=O)Nc2nnc3cc(C(F)(F)F)cc(C)n23)c(S)cc1Cl`, for which the TGI in the assay with HL-60(TB) leukemia, in the assay on 786-0 renal, in the assay with SR leukemia, in the assay on CCRF-CEM leukemia, with T-47D breast and in the assay with MOLT-4 leukemia was above 100 µM each time. The TGI in the assay with MALME-3M melanoma, in the assay on SW-620 colon, in the assay on DU-145 prostate and with SK-MEL-28 melanoma was above 100 µM in each case.

For the molecule `CC(C)(C)N1Cc2ccccc2/C(=C/Sc2ccccc2)C1=O`, the TGI in the assay with HL-60(TB) leukemia was 39.8 µM; in the assay on 786-0 renal, 24.8 µM; in the assay with SR leukemia, above 39.4 µM; in the assay with CCRF-CEM leukemia, above 100 µM; in the assay with T-47D breast it was 45.3 µM; with MOLT-4 leukemia, 48.4 µM. In addition, the TGI came to 28.7 µM in the assay on MALME-3M melanoma, 27.4 µM with SW-620 colon, 32.7 µM in the assay on DU-145 prostate and 33.7 µM with SK-MEL-28 melanoma.

As to `COC1/C=C/C(C)C(C(C)C(OC)C(C)CCC(=O)C(C)C(CCC(=O)O)OC)OC(=O)/C=C/C=C(\C)CC(OC)CC2=CC(=O)O[C@@H](C(C)C(OC)CC(OC)/C=C/C(C)C(OC)C1)[C@H]2O` (stereo not given in full), the TGI in the assay with HL-60(TB) leukemia was 1 µM; with 786-0 renal it was above 4.55 µM; in the assay on SR leukemia, above 4.14 µM; with CCRF-CEM leukemia, above 1.58 µM; with T-47D breast, above 5 µM; in the assay with MOLT-4 leukemia, above 3.93 µM. The TGI in the assay with MALME-3M melanoma is 2.94 µM; in the assay on SW-620 colon, above 5 µM; in the assay on DU-145 prostate, above 5 µM; in the assay with SK-MEL-28 melanoma, above 3.29 µM.

For `O=C1OS2(OCc3cccc4cccc2c34)c2ccccc21` (stereo not given), the TGI in the assay on HL-60(TB) leukemia, in the assay on 786-0 renal, in the assay with SR leukemia, with CCRF-CEM leukemia, with T-47D breast and in the assay on MOLT-4 leukemia was above 100 µM each time. For the same molecule, the TGI in the assay with MALME-3M melanoma, in the assay on SW-620 colon, in the assay on DU-145 prostate and in the assay on SK-MEL-28 melanoma was above 100 µM throughout.
